Reference: patent publication US9925174B2, “Administration form for the oral application of 3-[(2-{[4-(hexyloxycarbonyl-amino-imino-methyl)-phenylamino]-methyl}-1-methyl-1 H-benzimidazol acid ethyl ester and the salts thereof” (Boehringer Ingelheim International GmbH, priority 2002, dated 2018)

Assay: Solubility in water as a function of pH
Assay type: physicochemical

solubility in water at low pH levels (low pH): dissolves relatively well
solubility in water at pH levels above 5 (pH above 5, definition of the European Pharmacopoeia): virtually insoluble
SMILES: CCCCCCOC(=O)NC(=N)c1ccc(NCc2nc3cc(C(=O)N(CCC(=O)OCC)c4ccccn4)ccc3n2C)cc1 [compound of formula I, ethyl 3-[(2-{[4-(hexyloxycarbonylamino-imino-methyl)-phenylamino]-methyl}-1-methyl-1H-benzimidazole-5-carbonyl)-pyridin-2-yl-amino]-propionate]
